Earlier results as cited in patent publication US20220304980A1, “METERED DOSING COMPOSITIONS AND METHODS OF USE OF P[…]” (SW Holdings, Inc, priority 2019, published 2022).

Legend:
5-HT2A receptor = 5-HT2A receptor (Homo sapiens, UniProt P28223); conditions: selective 5-HT2A antagonists; cited from earlier work
rat veins = conditions: cited from earlier work

Sequence of 5-HT2A receptor (P28223 whole entry): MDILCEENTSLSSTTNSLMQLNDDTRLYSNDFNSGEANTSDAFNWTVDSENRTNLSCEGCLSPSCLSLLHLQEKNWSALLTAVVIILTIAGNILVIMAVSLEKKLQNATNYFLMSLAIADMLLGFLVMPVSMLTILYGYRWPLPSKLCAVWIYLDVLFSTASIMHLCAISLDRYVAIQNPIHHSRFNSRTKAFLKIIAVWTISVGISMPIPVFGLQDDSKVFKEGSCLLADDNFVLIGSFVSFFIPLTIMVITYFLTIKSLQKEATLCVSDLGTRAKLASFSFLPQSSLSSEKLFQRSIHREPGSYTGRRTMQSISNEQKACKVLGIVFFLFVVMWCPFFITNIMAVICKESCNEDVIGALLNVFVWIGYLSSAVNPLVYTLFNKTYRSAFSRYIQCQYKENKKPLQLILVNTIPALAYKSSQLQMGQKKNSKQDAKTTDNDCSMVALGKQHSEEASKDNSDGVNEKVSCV

Row | SMILES | vascular effect (5-HT2A receptor) | effect on DOI-induced constriction of rat veins (rat veins; 5-HT2A antagonist) | effect on rat veins (rat veins; 5-HT2A agonist)
1 | COc1cccc(CCc2ccccc2OCC(CN(C)C)OC(=O)CCC(=O)O)c1 (centres unmarked) [sarpogrelate] | vasodilating properties | – | –
2 | O=C(c1ccc(F)cc1)C1CCN(CCn2c(=O)[nH]c3ccccc3c2=O)CC1 [ketanserin] | vasodilating properties | blocked | –
3 | COc1cc(CC(C)N)c(OC)cc1I (centres unmarked) [DOI] | – | – | constricts rat veins
4 | O=CN1CCC(C(=O)NCCN2CCC(=C3c4ccccc4C=Cc4ccccc43)CC2)CC1 [AT-1015] | vasodilating properties | – | –
